Measured values: US20240360157A1, “TYK2 INHIBITORS” (BIOGEN MA INC., priority 2021, published 2024)
Counter-ions that a name gives are not always drawn.

Key:
Type in all cases: biochemical
[1] = target: human TYK2 catalytic kinase (JH1) domain (Homo sapiens (Human), UniProt P29597); experiment: ADP-Glo Kinase Assay, recombinant TYK2 catalytic kinase (JH1) domain; conditions: recombinant JH1 domain 2 nM, 10 μM ATP, JAK3-974 peptide, mean, read-out: TYK2 biochem IC50 (nM) Mean
Description: (§1) Compounds of the disclosure were assessed for their ability to inhibit TYK2, JAK1, JAK2, and JAK3 activity. The inhibitory properties of the compounds of the disclosure described herein can be evidenced by testing in any one of the following protocols.
(§2) The kinase activity of recombinantly generated catalytic kinase (also known as JH1) domain of human JAK1, JAK2, JAK3 and TYK2 were evaluated in a plate-based assay using the ADP-Glo™ Kinase Assay platform. Specifically, 4 nM of recombinant JAK1 kinase domain is used to phosphorylate 50 μM of a JAK3-342 (sequence ALVDGYFRLTT) peptide in the presence of 35 μM ATP. Catalytic activities of recombinant JAK2, JAK3 and TYK2 kinase domain (0.2, 0.3 and 2 nM, respectively) are evaluated by the phosphorylation status of the JAK3-974 (50 μM; sequence LPLDKDYYVVR) peptide with the addition of ATP (15, 4 and 10 μM, respectively). The reactions proceed for 100 minutes and the catalytic activity is quantified by first depleting the unused ATP, converting the hydrolyzed ADP into ATP to generate luminescence in a luciferase reaction; which is the basis of the ADP-Glo platform. Compounds are tested at either 10 μM or 1 μM top concentration, 11 points of 3-fold dilution. The data is normalized and the percent activity versus log concentration of compound is fitted with a 4-parameter logistic model to generate a curve and an IC50 value.

[2] = target: human JAK1 catalytic kinase (JH1) domain (Homo sapiens (Human), UniProt P23458); experiment: ADP-Glo Kinase Assay, recombinant JAK1 catalytic kinase (JH1) domain; conditions: recombinant JH1 domain 4 nM, 35 μM ATP, JAK3-342 peptide, mean, read-out: JAK1 biochem IC50 (nM) Mean
Sequence of human JAK1 catalytic kinase (JH1) domain (P23458 875-1153): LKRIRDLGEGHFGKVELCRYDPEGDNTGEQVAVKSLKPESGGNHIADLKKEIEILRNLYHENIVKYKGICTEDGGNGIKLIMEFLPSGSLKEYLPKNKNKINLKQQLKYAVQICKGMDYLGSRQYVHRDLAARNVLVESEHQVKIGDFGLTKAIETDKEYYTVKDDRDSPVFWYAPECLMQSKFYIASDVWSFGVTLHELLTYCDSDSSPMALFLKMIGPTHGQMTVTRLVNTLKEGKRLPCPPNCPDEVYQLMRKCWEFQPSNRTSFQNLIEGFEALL
Description: as §1, §2

[3] = target: human JAK2 catalytic kinase (JH1) domain (Homo sapiens (Human), UniProt O60674); experiment: ADP-Glo Kinase Assay, recombinant JAK2 catalytic kinase (JH1) domain; conditions: recombinant JH1 domain 0.2 nM, 15 μM ATP, JAK3-974 peptide, mean, read-out: JAK2 biochem IC50 (nM) Mean
Sequence of human JAK2 catalytic kinase (JH1) domain (O60674 849-1124): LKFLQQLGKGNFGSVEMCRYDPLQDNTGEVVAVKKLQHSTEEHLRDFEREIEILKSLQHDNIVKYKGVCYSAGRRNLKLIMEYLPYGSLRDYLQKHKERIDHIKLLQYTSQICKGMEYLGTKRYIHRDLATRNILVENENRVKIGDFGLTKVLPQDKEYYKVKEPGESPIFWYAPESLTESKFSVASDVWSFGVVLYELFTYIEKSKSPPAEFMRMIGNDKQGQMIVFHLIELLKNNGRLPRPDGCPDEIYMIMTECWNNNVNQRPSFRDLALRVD
Description: as §1, §2

[4] = target: human JAK3 catalytic kinase (JH1) domain (Homo sapiens (Human), UniProt P52333); experiment: ADP-Glo Kinase Assay, recombinant JAK3 catalytic kinase (JH1) domain; conditions: recombinant JH1 domain 0.3 nM, 4 μM ATP, JAK3-974 peptide, mean, read-out: JAK3 biochem IC50 (nM) Mean
Sequence of human JAK3 catalytic kinase (JH1) domain (P52333 822-1111): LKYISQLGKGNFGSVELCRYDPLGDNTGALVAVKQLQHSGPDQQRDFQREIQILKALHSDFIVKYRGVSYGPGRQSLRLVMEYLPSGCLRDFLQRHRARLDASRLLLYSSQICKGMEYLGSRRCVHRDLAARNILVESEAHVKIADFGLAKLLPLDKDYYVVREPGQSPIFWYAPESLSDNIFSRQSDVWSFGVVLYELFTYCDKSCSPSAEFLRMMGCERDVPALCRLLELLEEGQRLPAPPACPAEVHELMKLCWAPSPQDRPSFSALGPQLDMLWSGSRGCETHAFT
Description: as §1, §2

Sequence of human TYK2 catalytic kinase (JH1) domain (P29597 897-1176): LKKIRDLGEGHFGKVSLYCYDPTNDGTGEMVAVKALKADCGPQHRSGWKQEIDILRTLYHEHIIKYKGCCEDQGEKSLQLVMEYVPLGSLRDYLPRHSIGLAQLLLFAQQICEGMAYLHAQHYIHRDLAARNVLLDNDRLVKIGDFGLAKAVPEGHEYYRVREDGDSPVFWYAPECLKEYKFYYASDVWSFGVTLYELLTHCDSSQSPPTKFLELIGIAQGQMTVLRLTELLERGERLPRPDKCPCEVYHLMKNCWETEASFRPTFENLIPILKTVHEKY

Row | SMILES | IC50 [1] [nM] | IC50 [2] [nM] | IC50 [3] [nM] | IC50 [4] [nM]
1 | O=C(C1C(F)(F)C12CC2)N1C2CCC1CN(c1ncnn3cc(-c4cnn(C(F)F)c4)cc13)C2 (centres unmarked) [Example 10, (3-(6-(1-(difluoromethyl)-1H-pyrazol-4-yl)pyrrolo[2,1-f][1,2,4]triazin-4-yl)-3,8-diazabicyclo[3.2.1]octan-8-yl)(2,2-difluorospiro[2.2]pentan-1-yl)methanone] | 207 | 969 | 4330 | 3220
2 | O=C(C1CCC1(F)F)N1C2CCC1CN(c1ncnn3cc(-c4cnn(C(F)F)c4)cc13)C2 (centres unmarked) [Example 11, (2,2-difluorocyclobutyl)(3-(6-(1-(difluoromethyl)-1H-pyrazol-4-yl)pyrrolo[2,1-f][1,2,4]triazin-4-yl)-3,8-diazabicyclo[3.2.1]octan-8-yl)methanone] | 506 | 1650 | 8370 | 6670
3 | N#CC1CC(C(=O)N2C3CCC2CN(c2ncnn4cc(-c5cnn(C(F)F)c5)cc24)C3)C1 (centres unmarked) [Example 12, 3-(3-(6-(1-(difluoromethyl)-1H-pyrazol-4-yl)pyrrolo[2,1-f][1,2,4]triazin-4-yl)-3,8-diazabicyclo[3.2.1]octane-8-carbonyl)cyclobutane-1-carbonitrile] | 656 | 2980 | 7960 | 8350
4 | CC1(C)C(C(=O)N2C3CCC2CN(c2ncnn4cc(-c5cnn(C(F)F)c5)cc24)C3)C1(F)F (centres unmarked) [Example 13, (2,2-difluoro-3,3-dimethylcyclopropyl)(3-(6-(1-(difluoromethyl)-1H-pyrazol-4-yl)pyrrolo[2,1-f][1,2,4]triazin-4-yl)-3,8-diazabicyclo[3.2.1]octan-8-yl)methanone] | 688 | 3360 | 9150 | 7220
5 | Cn1cc(-c2cc3c(N4CC5CCC(C4)N5C(=O)C4CC4)ccnn3c2)cn1 [Example 15, cyclopropyl(3-(6-(1-methyl-1H-pyrazol-4-yl)pyrrolo[1,2-b]pyridazin-4-yl)-3,8-diazabicyclo[3.2.1]octan-8-yl)methanone] | 13 | 646 | 376 | 888
6 | O=C(C1CC1)N1C2CCC1CN(c1ccnn3cc(-c4cnn(C(F)F)c4)cc13)C2 [Example 16, cyclopropyl(3-(6-(1-(difluoromethyl)-1H-pyrazol-4-yl)pyrrolo[1,2-b]pyridazin-4-yl)-3,8-diazabicyclo[3.2.1]octan-8-yl)methanone] | 13.8 | 264 | 257 | 1040
7 | O=C([C@@H]1C[C@H]1F)N1C2CCC1CN(c1ccnn3cc(-c4cnn(C(F)F)c4)cc13)C2 [Example 17, (3-(6-(1-(difluoromethyl)-1H-pyrazol-4-yl)pyrrolo[1,2-b]pyridazin-4-yl)-3,8-diazabicyclo[3.2.1]octan-8-yl)((1S,2R)-2-fluorocyclopropyl)methanone] | 1 | 37 | 36 | 437
8 | O=C([C@@H]1C[C@H]1F)N1C2CCC1CN(c1ccnn3cc(-c4cnn(C(F)(F)F)c4)cc13)C2 [Example 18, ((1S,2R)-2-fluorocyclopropyl)(3-(6-(1-(trifluoromethyl)-1H-pyrazol-4-yl)pyrrolo[1,2-b]pyridazin-4-yl)-3,8-diazabicyclo[3.2.1]octan-8-yl)methanone] | 1.5 | 38 | 33 | 391
9 | O=C([C@@H]1CC1(F)F)N1C2CCC1CN(c1ccnn3cc(-c4cnn(C(F)(F)F)c4)cc13)C2 [Example 19, ((S)-2,2-difluorocyclopropyl)(3-(6-(1-(trifluoromethyl)-1H-pyrazol-4-yl)pyrrolo[1,2-b]pyridazin-4-yl)-3,8-diazabicyclo[3.2.1]octan-8-yl)methanone] | 2.1 | 34 | 29 | 518
10 | O=C(C1CC1)N1C2CCC1CN(c1ccnn3cc(-c4cnn(C(F)(F)F)c4)cc13)C2 [Example 20, cyclopropyl(3-(6-(1-(trifluoromethyl)-1H-pyrazol-4-yl)pyrrolo[1,2-b]pyridazin-4-yl)-3,8-diazabicyclo[3.2.1]octan-8-yl)methanone] | 30.2 | 356 | 532 | 1860
11 | O=C([C@@H]1CC1(F)F)N1C2CCC1CN(c1ccnn3cc(-c4cnn(C(F)F)c4)cc13)C2 [Example 21, ((S)-2,2-difluorocyclopropyl)(3-(6-(1-(difluoromethyl)-1H-pyrazol-4-yl)pyrrolo[1,2-b]pyridazin-4-yl)-3,8-diazabicyclo[3.2.1]octan-8-yl)methanone] | 1.4 | 39 | 28 | 565
12 | Cn1cc(-c2cc3c(N4CC5CCC(C4)N5C(=O)[C@@H]4CC4(F)F)ccnn3c2)cn1 [Example 22, ((S)-2,2-difluorocyclopropyl)(3-(6-(1-methyl-1H-pyrazol-4-yl)pyrrolo[1,2-b]pyridazin-4-yl)-3,8-diazabicyclo[3.2.1]octan-8-yl)methanone] | 1.8 | 55 | 32 | 445
13 | Cn1cc(-c2cc3c(N4CC5CCC(C4)N5C(=O)CC#N)ccnn3c2)cn1 [Example 23, 3-(3-(6-(1-methyl-1H-pyrazol-4-yl)pyrrolo[1,2-b]pyridazin-4-yl)-3,8-diazabicyclo[3.2.1]octan-8-yl)-3-oxopropanenitrile] | 9.8 | 137 | 117 | 346
14 | O=C([C@@H]1C[C@H]1F)N1C2CCC1CN(c1ccnn3cc(C4CC4)cc13)C2 [Example 24, (3-(6-cyclopropylpyrrolo[1,2-b]pyridazin-4-yl)-3,8-diazabicyclo[3.2.1]octan-8-yl)((1S,2R)-2-fluorocyclopropyl)methanone] | 164 | 2740 | 5900 | 9080
15 | O=C([C@@H]1CC1(F)F)N1C2CCC1CN(c1ccnn3cc(C4CC4)cc13)C2 [Example 25, (3-(6-cyclopropylpyrrolo[1,2-b]pyridazin-4-yl)-3,8-diazabicyclo[3.2.1]octan-8-yl)((S)-2,2-difluorocyclopropyl)methanone] | 662 | 8060 | 10000 | 10000
16 | COc1nccc(-c2cc3c(N4CC5CCC(C4)N5C(=O)[C@@H]4C[C@H]4F)ccnn3c2)c1F [Example 26, (3-(6-(3-fluoro-2-methoxypyridin-4-yl)pyrrolo[1,2-b]pyridazin-4-yl)-3,8-diazabicyclo[3.2.1]octan-8-yl)((1S,2R)-2-fluorocyclopropyl)methanone] | 9.8 | 292 | 145 | 1190
17 | COc1cc(-c2cc3c(N4CC5CCC(C4)N5C(=O)[C@@H]4C[C@H]4F)ccnn3c2)c(F)cn1 [Example 27, (3-(6-(5-fluoro-2-methoxypyridin-4-yl)pyrrolo[1,2-b]pyridazin-4-yl)-3,8-diazabicyclo[3.2.1]octan-8-yl)((1S,2R)-2-fluorocyclopropyl)methanone] | 16 | 277 | 325 | 4000
18 | O=C([C@H]1C[C@H](C(F)(F)F)C1)N1C2CCC1CN(c1ncnn3cc(-c4cnn(C(F)F)c4)cc13)C2 [Example 28, (3-(6-(1-(difluoromethyl)-1H-pyrazol-4-yl)pyrrolo[2,1-f][1,2,4]triazin-4-yl)-3,8-diazabicyclo[3.2.1]octan-8-yl)((1r,3r)-3-(trifluoromethyl)cyclobutyl)methanone] | 636 | 2140 | 10000 | 10000
19 | O=C([C@H]1C[C@@H](C(F)(F)F)C1)N1C2CCC1CN(c1ncnn3cc(-c4cnn(C(F)F)c4)cc13)C2 [Example 29, (3-(6-(1-(difluoromethyl)-1H-pyrazol-4-yl)pyrrolo[2,1-f][1,2,4]triazin-4-yl)-3,8-diazabicyclo[3.2.1]octan-8-yl)((1s,3s)-3-(trifluoromethyl)cyclobutyl)methanone] | 238 | 774 | 4250 | 7470
20 | N#CC1(C(=O)N2C3CCC2CN(c2ncnn4cc(-c5cnn(C(F)F)c5)cc24)C3)CC1 [Example 30, 1-(3-(6-(1-(difluoromethyl)-1H-pyrazol-4-yl)pyrrolo[2,1-f][1,2,4]triazin-4-yl)-3,8-diazabicyclo[3.2.1]octane-8-carbonyl)cyclopropane-1-carbonitrile trifluoroacetate] | 90 | 191 | 938 | 820
